Test results reported in PubChem BioAssay (NCI).
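How tested: cells in 96-well plates exposed to compound for 48 hours at five concentrations. TGI is the concentration that stops growth completely.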

How the values were obtained:
Assay in all cases: DTP human tumour cell line panel, 48 h
786-0 renal = tested on: 786-0 renal
ACHN renal = tested on: ACHN renal
SF-268 CNS = tested on: SF-268 CNS
UACC-62 melanoma = tested on: UACC-62 melanoma
HOP-18 NSCLC = tested on: HOP-18 NSCLC
RXF-631 renal = tested on: RXF-631 renal
SF-539 CNS = tested on: SF-539 CNS
SW-620 colon = tested on: SW-620 colon
UO-31 renal = tested on: UO-31 renal
HOP-62 NSCLC = tested on: HOP-62 NSCLC
DLD-1 colon = tested on: DLD-1 colon
SNB-75 CNS = tested on: SNB-75 CNS
DMS 114 small cell lung = tested on: DMS 114 small cell lung
HCC-2998 colon = tested on: HCC-2998 colon
HCT-116 colon = tested on: HCT-116 colon
HL-60(TB) leukemia = tested on: HL-60(TB) leukemia
OVCAR-3 ovarian = tested on: OVCAR-3 ovarian
TK-10 renal = tested on: TK-10 renal
M19-MEL melanoma = tested on: M19-MEL melanoma
OVCAR-4 ovarian = tested on: OVCAR-4 ovarian
KM20L2 colon = tested on: KM20L2 colon
SNB-78 CNS = tested on: SNB-78 CNS
OVCAR-8 ovarian = tested on: OVCAR-8 ovarian
XF 498 CNS = tested on: XF 498 CNS
HT29 colon = tested on: HT29 colon
SF-295 CNS = tested on: SF-295 CNS
NCI-H23 lung = tested on: NCI-H23 lung
IGROV1 ovarian = tested on: IGROV1 ovarian
EKVX NSCLC = tested on: EKVX NSCLC
SK-MEL-2 melanoma = tested on: SK-MEL-2 melanoma
A498 renal = tested on: A498 renal
LXFL 529 NSCLC = tested on: LXFL 529 NSCLC
DMS 273 small cell lung = tested on: DMS 273 small cell lung
RXF 393 renal = tested on: RXF 393 renal
SK-MEL-28 melanoma = tested on: SK-MEL-28 melanoma
U251 CNS = tested on: U251 CNS
RPMI-8226 leukemia = tested on: RPMI-8226 leukemia
M14 melanoma = tested on: M14 melanoma
MOLT-4 leukemia = tested on: MOLT-4 leukemia
SK-OV-3 ovarian = tested on: SK-OV-3 ovarian
OVCAR-5 ovarian = tested on: OVCAR-5 ovarian
UACC-257 melanoma = tested on: UACC-257 melanoma
SN12C renal = tested on: SN12C renal
HOP-92 NSCLC = tested on: HOP-92 NSCLC
KM12 colon = tested on: KM12 colon
NCI-H522 lung = tested on: NCI-H522 lung
NCI-H460 lung = tested on: NCI-H460 lung
NCI-H226 lung = tested on: NCI-H226 lung
K-562 leukemia = tested on: K-562 leukemia
MALME-3M melanoma = tested on: MALME-3M melanoma
A549 NSCLC = tested on: A549 NSCLC
COLO 205 colon = tested on: COLO 205 colon
CAKI-1 renal = tested on: CAKI-1 renal
LOX IMVI melanoma = tested on: LOX IMVI melanoma
SNB-19 CNS = tested on: SNB-19 CNS
SR leukemia = tested on: SR leukemia
CCRF-CEM leukemia = tested on: CCRF-CEM leukemia
HCT-15 colon = tested on: HCT-15 colon
SK-MEL-5 melanoma = tested on: SK-MEL-5 melanoma

Question: What does the source list for `C=CCCCCCCCCC(=O)NS(=O)(=O)c1ccccc1`?
Answer: TGI (786-0 renal): > 100 µM; TGI (ACHN renal): > 100 µM; TGI (SF-268 CNS): > 100 µM; TGI (UACC-62 melanoma): > 100 µM; TGI (HOP-18 NSCLC): > 100 µM; TGI (RXF-631 renal): > 100 µM; TGI (SF-539 CNS): > 100 µM; TGI (SW-620 colon): > 100 µM; TGI (UO-31 renal): > 100 µM; TGI (HOP-62 NSCLC): > 100 µM; TGI (DLD-1 colon): > 100 µM; TGI (SNB-75 CNS): > 100 µM; TGI (DMS 114 small cell lung): > 100 µM; TGI (HCC-2998 colon): > 100 µM; TGI (HCT-116 colon): > 100 µM; TGI (HL-60(TB) leukemia): > 100 µM; TGI (OVCAR-3 ovarian): > 100 µM; TGI (TK-10 renal): > 100 µM; TGI (M19-MEL melanoma): > 100 µM; TGI (OVCAR-4 ovarian): > 100 µM; TGI (KM20L2 colon): > 100 µM; TGI (SNB-78 CNS): > 100 µM; TGI (OVCAR-8 ovarian): > 100 µM; TGI (XF 498 CNS): > 100 µM; TGI (HT29 colon): > 100 µM; TGI (SF-295 CNS): > 100 µM; TGI (NCI-H23 lung): > 100 µM; TGI (IGROV1 ovarian): > 100 µM; TGI (EKVX NSCLC): > 100 µM; TGI (SK-MEL-2 melanoma): > 100 µM; TGI (A498 renal): > 100 µM; TGI (LXFL 529 NSCLC): > 100 µM; TGI (DMS 273 small cell lung): > 100 µM; TGI (RXF 393 renal): > 100 µM; TGI (SK-MEL-28 melanoma): > 100 µM; TGI (U251 CNS): > 100 µM; TGI (RPMI-8226 leukemia): > 100 µM; TGI (M14 melanoma): > 100 µM; TGI (MOLT-4 leukemia): > 100 µM; TGI (SK-OV-3 ovarian): > 100 µM; TGI (OVCAR-5 ovarian): > 100 µM; TGI (UACC-257 melanoma): > 100 µM; TGI (SN12C renal): > 100 µM; TGI (HOP-92 NSCLC): > 100 µM; TGI (KM12 colon): > 100 µM; TGI (NCI-H522 lung): > 100 µM; TGI (NCI-H460 lung): > 100 µM; TGI (NCI-H226 lung): > 100 µM; TGI (K-562 leukemia): > 100 µM; TGI (MALME-3M melanoma): > 100 µM; TGI (A549 NSCLC): > 100 µM; TGI (COLO 205 colon): > 100 µM; TGI (CAKI-1 renal): > 100 µM; TGI (LOX IMVI melanoma): > 100 µM; TGI (SNB-19 CNS): > 100 µM

Question: Which results are given for `CCC1CN2CCc3cc(OC)c(OC)cc3C2CC1CC1c2cc(OC)c(OC)cc2CCN1C(=O)C(N)Cc1ccccc1` (stereo not given)?
Answer: TGI (ACHN renal): 11.8 µM; TGI (SF-268 CNS): 13.7 µM; TGI (UACC-62 melanoma): 11.2 µM; TGI (RXF-631 renal): 8.11 µM; TGI (SF-539 CNS): 7.48 µM; TGI (SW-620 colon): 10.9 µM; TGI (UO-31 renal): 5.85 µM; TGI (HOP-62 NSCLC): 7.78 µM; TGI (DLD-1 colon): 14.1 µM; TGI (SNB-75 CNS): 10.6 µM; TGI (SR leukemia): 11.4 µM; TGI (CCRF-CEM leukemia): 10.2 µM; TGI (HCC-2998 colon): 5.66 µM; TGI (HCT-116 colon): 1.29 µM; TGI (HL-60(TB) leukemia): 4.8 µM; TGI (OVCAR-3 ovarian): 15.4 µM; TGI (TK-10 renal): 8.53 µM; TGI (HCT-15 colon): 10.9 µM; TGI (KM20L2 colon): 3.52 µM; TGI (OVCAR-8 ovarian): 11.1 µM; TGI (XF 498 CNS): 10.5 µM; TGI (HT29 colon): 10.4 µM; TGI (SF-295 CNS): 10.3 µM; TGI (NCI-H23 lung): 7.64 µM; TGI (EKVX NSCLC): 4.37 µM; TGI (SK-MEL-2 melanoma): 6.1 µM; TGI (A498 renal): 11 µM; TGI (LXFL 529 NSCLC): 11.6 µM; TGI (DMS 273 small cell lung): 5.22 µM; TGI (RXF 393 renal): 4.37 µM; TGI (SK-MEL-28 melanoma): 10.3 µM; TGI (U251 CNS): 5.97 µM; TGI (RPMI-8226 leukemia): 6.07 µM; TGI (M14 melanoma): 2.19 µM; TGI (MOLT-4 leukemia): 1.78 µM; TGI (SK-OV-3 ovarian): 17.8 µM; TGI (OVCAR-5 ovarian): 9.55 µM; TGI (UACC-257 melanoma): 11.6 µM; TGI (SN12C renal): 10.8 µM; TGI (HOP-92 NSCLC): 6.41 µM; TGI (SK-MEL-5 melanoma): 5.34 µM; TGI (KM12 colon): 10.2 µM; TGI (NCI-H522 lung): 1.73 µM; TGI (NCI-H460 lung): 9.23 µM; TGI (K-562 leukemia): 1.93 µM; TGI (MALME-3M melanoma): 6.46 µM; TGI (A549 NSCLC): 7.85 µM; TGI (CAKI-1 renal): 11.2 µM; TGI (LOX IMVI melanoma): 10.9 µM; TGI (SNB-19 CNS): 6.98 µM
